Experimental data taken from US20210047291A1, “PESTICIDALLY ACTIVE HETEROCYCLIC DERIVATIVES WITH SULFUR CONTAINING SUBSTITUENTS” (SYNGENTA PARTICIPATIONS AG, priority 2018, published 2021).
Read-outs that look alike come from different tables or passages of the source.

Legend:
Type in all cases: in vivo
[1] = tested on: Melodoigyne incognita; experiment: Example B14: Melodoigyne incognita juvenile mobility, in vitro profiling in 96 well plate; settings: read-out: control (juvenile mobility)
Protocol: Test solutions are prepared from 10,000 ppm DMSO stock solutions with a TECAN robot to achieve 20 μL of 1000, 200, 100, 50, 25 and 12.5 ppm. For each concentration three replicates are produced. Per well, 80 μL nematode solution is added containing 100 to 150 freshly harvested second stage juveniles of Melodoigyne incognita. The plates are covered and stored at room temperature in the dark and incubated for 24 h. Mobility of the exposed juveniles in a treated well is measured using an imaging tool and compared to an average of 12 untreated replicates.

[2] = tested on: Euschistus heros (Neotropical Brown Stink Bug); experiment: Example B3: Euschistus heros, soybean leaves, N2 nymphs; settings: for percent effect (mortality or growth inhibition) at 200 ppm: 120 h, read-out: effect in at least one of the two categories (mortality or growth inhibition)
Protocol: Soybean leaves on agar in 24-well microtiter plates were sprayed with aqueous test solutions prepared from 10,000 ppm DMSO stock solutions. After drying the leaves were infested with N2 nymphs. The samples were assessed for mortality and growth inhibition in comparison to untreated samples 5 days after infestation.

[3] = tested on: Myzus persicae (Green peach aphid); experiment: Example B5: Myzus persicae feeding/contact activity, sunflower leaf discs; settings: foliar; for mortality at 200 ppm: 144 h
Protocol: Sunflower leaf discs were placed onto agar in a 24-well microtiter plate and sprayed with aqueous test solutions prepared from 10,000 ppm DMSO stock solutions. After drying, the leaf discs were infested with an aphid population of mixed ages. The samples were assessed for mortality 6 days after infestation.

[4] = tested on: Myzus persicae (Green peach aphid); experiment: Example B6: Myzus persicae systemic activity, pea seedlings; settings: for mortality at 24 ppm: 144 h
Protocol: Roots of pea seedlings infested with an aphid population of mixed ages were placed directly into aqueous test solutions prepared from 10,000 DMSO stock solutions. The samples were assessed for mortality 6 days after placing seedlings into test solutions.

[5] = tested on: Spodoptera littoralis (Egyptian Cotton Leaf Worm); experiment: Example B9: Spodoptera littoralis, cotton leaf discs (mortality, anti-feeding, growth inhibition); settings: foliar, 72 h, read-out: control (mortality, anti-feeding effect or growth inhibition)
Protocol: Cotton leaf discs were placed onto agar in 24-well microtiter plates and sprayed with aqueous test solutions prepared from 10,000 ppm DMSO stock solutions. After drying the leaf discs were infested with five L1 larvae. The samples were assessed for mortality, anti-feeding effect, and growth inhibition in comparison to untreated samples 3 days after infestation. Control of Spodoptera littoralis by a test sample is given when at least one of the categories mortality, anti-feedant effect, and growth inhibition is higher than the untreated sample.

[6] = tested on: Plutella xylostella (Diamond Back Moth); experiment: Example B7: Plutella xylostella, artificial diet, L2 larvae; settings: 120 h, read-out: effect in at least one of the two categories (mortality or growth inhibition); for percent effect (mortality or growth inhibition) at 200 ppm: application rate of 200 ppm, L2 larvae, 5 days after infestation
Protocol: (§1) 24-well microtiter plates with artificial diet were treated with aqueous test solutions prepared from 10,000 ppm DMSO stock solutions by pipetting. After drying, the plates were infested with L2 larvae (10 to 15 per well). The samples were assessed for mortality and growth inhibition in comparison to untreated samples 5 days after infestation.

[7] = tested on: Diabrotica Balteata (Corn Root Worm); experiment: Example B2: Diabrotica balteata, maize sprouts, L2 larvae; settings: Diabrotica balteata, 96 h, application rate of 200 ppm; L2 larvae; 4 days after infestation; read-out: effect in at least one of the two categories (mortality or growth inhibition)
Protocol: as §1, with “Maize sprouts placed onto an agar layer in 24-well” for “24-well”, “plates” for “plates with artificial diet”, “spraying.” for “pipetting.”, “(6” for “(10”, “10” for “15”, “4” for “5”

[8] = 200 ppm, after 24 h, second stage juveniles
[9] = Euschistus heros, application rate of 200 ppm, N2 nymphs, 5 days after infestation
[10] = Myzus persicae, application rate of 200 ppm, mixed ages, 6 days after infestation, read-out: mortality
[11] = Myzus persicae, test rate of 24 ppm, mixed ages, 6 days after placing seedlings into test solutions, read-out: mortality
[12] = application rate of 200 ppm, L1 larvae, 3 days after infestation

| SMILES | pest or weed control at 200 ppm [1, 8] [%] | percent effect (mortality or growth inhibition) at 200 ppm [2, 9] [%] | mortality at 200 ppm [3, 10] [%] | mortality at 24 ppm [4, 11] [%] | percent control (mortality, anti-feedant effect or growth inhibition) at 200 ppm [5, 12] [%] | percent effect (mortality or growth inhibition) at 200 ppm [6] [%] | percent effect (mortality or growth inhibition) at 200 ppm [7] [%] | further results |
| --- | --- | --- | --- | --- | --- | --- | --- | --- |
| CCS(=O)(=O)c1cc(N2CCCC2=O)cnc1-c1nc2cc(C(F)(F)F)ncc2n1C [P5, 1-[5-ethylsulfonyl-6-[3-methyl-6-(trifluoromethyl)imidazo[4,5-c]pyridin-2-yl]-3-pyridyl]pyrrolidin-2-one] | – | – | – | – | – | – | – | pest or weed control at 200 ppm ([1]; 24 h): ≥ 80%; mortality at 50 ppm ([2]; Euschistus heros): 100%; percent effect (mortality or growth inhibition) at 200 ppm ([2]; Euschistus heros): ≥ 80%; mortality at 12.5 ppm ([3]; Myzus persicae): 0%; mortality at 200 ppm ([3]; Myzus persicae): ≥ 80%; mortality at 1.5 ppm ([4]; Myzus persicae): 80%; mortality at 24 ppm ([4]; Myzus persicae): ≥ 80%; percent control (mortality, anti-feedant effect or growth inhibition) at 200 ppm [5]: ≥ 80%; percent control (mortality or growth inhibition) at 200 ppm [6]: ≥ 80% |
| CCC(=O)N(c1cnc(-c2nc3cc(C(F)(F)F)ncc3n2C)c(S(=O)(=O)CC)c1)C1CC1 [P40, N-cyclopropyl-N-[5-ethylsulfonyl-6-[3-methyl-6-(trifluoromethyl)imidazo[4,5-c]pyridin-2-yl]-3-pyridyl]propanamide] | ≥ 80 | ≥ 80 | ≥ 80 | ≥ 80 | ≥ 80 | ≥ 80 | ≥ 80 | – |
| CCS(=O)(=O)c1cc(N(C)C(=O)C(C)(C)C)cnc1-c1nc2cc(C(F)(F)F)ncc2n1C [P26, N-[5-ethylsulfonyl-6-[3-methyl-6-(trifluoromethyl)imidazo[4,5-c]pyridin-2-yl]-3-pyridyl]-N,2,2-trimethyl-propanamide] | ≥ 80 | ≥ 80 | ≥ 80 | ≥ 80 | – | ≥ 80 | – | – |
| CCC(=O)N(OC)c1cnc(-c2nc3cc(C(F)(F)F)ncc3n2C)c(S(=O)(=O)CC)c1 [P29, N-[5-ethylsulfonyl-6-[3-methyl-6-(trifluoromethyl)imidazo[4,5-c]pyridin-2-yl]-3-pyridyl]-N-methoxy-propanamide] | ≥ 80 | ≥ 80 | ≥ 80 | ≥ 80 | ≥ 80 | ≥ 80 | ≥ 80 | – |
| CCS(=O)(=O)c1cc(N(C)C(=O)CS(C)(=O)=O)cnc1-c1nc2cc(C(F)(F)F)ncc2n1C [P17, N-[5-ethylsulfonyl-6-[3-methyl-6-(trifluoromethyl)imidazo[4,5-c]pyridin-2-yl]-3-pyridyl]-N-methyl-2-methylsulfonyl-acetamide] | ≥ 80 | ≥ 80 | ≥ 80 | ≥ 80 | ≥ 80 | – | ≥ 80 | – |
| CCC(=O)Nc1cnc(-c2nc3cc(C(F)(F)F)ncc3n2C)c(S(=O)(=O)CC)c1 [P25, N-[5-ethylsulfonyl-6-[3-methyl-6-(trifluoromethyl)imidazo[4,5-c]pyridin-2-yl]-3-pyridyl]propanamide] | ≥ 80 | ≥ 80 | ≥ 80 | ≥ 80 | – | ≥ 80 | ≥ 80 | – |
| CCS(=O)(=O)c1cc(N(OC)C(C)=O)cnc1-c1nc2cc(C(F)(F)F)ncc2n1C [P30, N-[5-ethylsulfonyl-6-[3-methyl-6-(trifluoromethyl)imidazo[4,5-c]pyridin-2-yl]-3-pyridyl]-N-methoxy-acetamide] | ≥ 80 | ≥ 80 | ≥ 80 | ≥ 80 | ≥ 80 | ≥ 80 | ≥ 80 | – |
| CCS(=O)(=O)c1cc(N(C)C(=O)CCl)cnc1-c1nc2cc(C(F)(F)F)ncc2n1C [P22, 2-chloro-N-[5-ethylsulfonyl-6-[3-methyl-6-(trifluoromethyl)imidazo[4,5-c]pyridin-2-yl]-3-pyridyl]-N-methyl-acetamide] | ≥ 80 | ≥ 80 | ≥ 80 | ≥ 80 | ≥ 80 | – | – | – |
| CCS(=O)(=O)c1cc(N(OC)C(=O)C2CC2)cnc1-c1nc2cc(C(F)(F)F)ncc2n1C [P24, N-[5-ethylsulfonyl-6-[3-methyl-6-(trifluoromethyl)imidazo[4,5-c]pyridin-2-yl]-3-pyridyl]-N-methoxy-cyclopropanecarboxamide] | ≥ 80 | ≥ 80 | – | – | ≥ 80 | ≥ 80 | ≥ 80 | – |
| CCS(=O)(=O)c1cc(N2CCOC2=O)cnc1-c1nc2cc(C(F)(F)F)ncc2n1C [P34, 3-[5-ethylsulfonyl-6-[3-methyl-6-(trifluoromethyl)imidazo[4,5-c]pyridin-2-yl]-3-pyridyl]oxazolidin-2-one] | ≥ 80 | ≥ 80 | ≥ 80 | ≥ 80 | ≥ 80 | ≥ 80 | – | mortality at 50 ppm ([2]; Concentration 50 ppm, Euschistus heros (Example B3), read-out: Mortality (%)): 80%; mortality at 12.5 ppm ([3]; Concentration 12.5 ppm, Myzus persicae (feeding/contact, Example B5), read-out: Mortality (%)): 100%; mortality at 1.5 ppm ([4]; Concentration 1.5 ppm, Myzus persicae (systemic, Example B6), read-out: Mortality (%)): 100% |
| CCS(=O)(=O)c1cc(N(C)C(=O)COC)cnc1-c1nc2cc(C(F)(F)F)ncc2n1C [P12, N-[5-ethylsulfonyl-6-[3-methyl-6-(trifluoromethyl)imidazo[4,5-c]pyridin-2-yl]-3-pyridyl]-2-methoxy-N-methyl-acetamide] | ≥ 80 | ≥ 80 | ≥ 80 | ≥ 80 | ≥ 80 | ≥ 80 | ≥ 80 | – |
| CCS(=O)(=O)c1cc(N(C)C(=O)C(F)(F)F)cnc1-c1nc2cc(C(F)(F)F)ncc2n1C [P11, N-[5-ethylsulfonyl-6-[3-methyl-6-(trifluoromethyl)imidazo[4,5-c]pyridin-2-yl]-3-pyridyl]-2,2,2-trifluoro-N-methyl-acetamide] | ≥ 80 | ≥ 80 | ≥ 80 | ≥ 80 | ≥ 80 | ≥ 80 | ≥ 80 | – |
| CCS(=O)(=O)c1cc(N2CCN(OC)C2=O)cnc1-c1nc2cc(C(F)(F)F)ncc2n1C [P35, 1-[5-ethylsulfonyl-6-[3-methyl-6-(trifluoromethyl)imidazo[4,5-c]pyridin-2-yl]-3-pyridyl]-3-methoxy-imidazolidin-2-one] | – | ≥ 80 | ≥ 80 | ≥ 80 | ≥ 80 | – | – | – |
